Reference: PubChem BioAssay AID179 (DTP/NCI, 2004)
Several values for one entry are separate records, joined by “and”; a condition that tells them apart may be missing. Identical values can stand only once. Activity calls are given as the source filed them.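 The calls were made as follows: active = compounds giving half or more protection of infected cells from virus-caused growth loss, again on retest; inactive = the rest.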 Where a SMILES comes first, the peptide text is derived from it. The star is where a group is joined. Boc = CC(C)(C)OC(=O)*

System: CEM cells HIV-1 protection, formazan growth assay
Assay: NCI AIDS Antiviral Assay
Details: for IC50: measured here: growth of uninfected CEM cells
How it was run: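 CEM (human) cells, HIV-1 infected vs uninfected, 5-point dosing, formazan growth read-out. Retest threshold 50% protection.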

Row | Compound | EC50 | IC50 | outcome
1 | O=C1CCC2(c3ccc(Cl)cc3)SCCN12 (configuration not stated) | > 200 µM | 145 µM | –
2 | Cc1ccccc1N1OS(=O)(=O)CC1(C#N)c1ccccc1 (configuration not stated) | > 83.2 µM | > 83.2 µM | –
3 | OCc1cc2c(cc1CO)OCC2 | – | – | inactive
4 | Cc1cc(S(=O)(=O)n2ccnc2Oc2ccc(N)cc2)c(SSc2cc(Cl)c(C)cc2S(=O)(=O)n2ccnc2Oc2ccc(N)cc2)cc1Cl | > 100 µM | 21.9 µM | –
5 | Cc1ccc([N+](=O)[O-])cc1NC(=O)C(=O)Cc1cc(=O)oc2cc(O)ccc12 | > 468 µM | 363 µM | –
6 | CCN(CC)C(=O)Cn1c(-c2ccccc2)cc2ccccc21 | > 200 µM | 40.7 µM | –
7 | O=S(=O)(/C=C/CS(=O)(=O)c1ccccc1)c1ccccc1 | – | – | inactive
8 | CC(=O)OC1(Sc2ccccc2)CC2[C@H]3COC(C)(C)O[C@H]3CC[C@@]2(C)CC1=O (some centres not stated) | – | – | inactive
9 | COc1cc(/C=C2/N=C(c3ccccc3)N(C3=NNC4(C(=O)N3)c3ccccc3-c3ccccc34)NC2=O)ccc1O | > 100 µM | 75.9 µM | –
10 | COc1cc(C(=O)n2c(=O)oc(=O)c3cc([N+](=O)[O-])ccc32)cc(OC)c1OC | > 200 µM | > 200 µM | –
11 | CCC1C2CC3C4N(C)c5ccccc5C45CC(C2C5O)N3C1O (configuration not stated) | – | – | inactive
12 | O=C(O)CN1C(=O)C(=O)c2cc([N+](=O)[O-])ccc21 | > 200 µM | > 200 µM | –
13 | CCCCCCCCCCCC(O)=C1C(=O)CC(O)CC1=O (configuration not stated) | > 17 µM | > 17 µM | –
14 | O=C(CCN1CCCCC1)N1CCc2c([nH]c3ccccc23)C1c1cccnc1 (configuration not stated) | > 13.5 µM | > 13.5 µM | –
15 | COC(OC(CO)C(O)S(=O)(=O)O)C(O)S(=O)(=O)O (configuration not stated) | > 200 µM | 32.4 µM | –
16 | O=C1c2ccccc2C(=O)c2sc(Nc3ccccc3Cl)nc21 | > 7.94 µM | > 7.94 µM | –
17 | COC(=O)C(Cc1c[nH]c2ccccc12)NC(=O)C(Cc1c[nH]c2ccccc12)NC(=O)C(Cc1c[nH]c2ccccc12)NC(=O)C(Cc1c[nH]c2ccccc12)NC(=O)C(Cc1c[nH]c2ccccc12)NC(=O)OC(C)(C)C (configuration not stated) (Boc-WWWWW-OMe; configuration not given here) | > 200 µM | 27.5 µM | –
18 | Cc1c2ccccc2nc(CS(C)(=O)=O)[n+]1[O-] | > 200 µM | > 200 µM | –
19 | O=S(=O)(NCCO)c1cc[c]([Sb](=[O])([OH])[OH])cc1 | > 200 µM | > 200 µM | –
20 | O=C1[C@@H]2C(c3ccccc3[N+](=O)[O-])=[N+](c3ccccc3)O[C@@H]2C(=O)N1c1ccc(Cc2ccc(N3C(=O)[C@H]4C(c5ccccc5[N+](=O)[O-])=[N+](c5ccccc5)O[C@H]4C3=O)cc2)cc1 | > 8.51 µM | > 8.51 µM | –
21 | CC(C)n1nnnc1-c1ccccc1 | > 200 µM | > 200 µM | –

Row | Compound | EC50 | IC50 | outcome
22 | COc1cccc(/C=N\NC(=O)C(C)SC(C)C(=O)N/N=C/c2cccc(OC)c2)c1 (configuration not stated) | – | – | inactive
23 | CCOC(=O)c1cc2c(cn1)[nH]c1cccc(N)c12 | > 263 µM | > 263 µM | –
24 | CCCCNC(=O)OCCN=c1c2ccccc2ccc2ccccc12 | > 200 µM | > 200 µM | –
25 | CCOC(=O)c1cc(C)nc2c1c(=O)n(-c1ccccc1)c(=O)n2CCCCN1CCN(c2ncccn2)CC1 | > 200 µM | 107 µM | –
26 | CC(=O)CCn1c(=S)sc2ccccc21 | > 200 µM | 93.3 µM | –
27 | c1ccc(P(OCCCCOP(c2ccccc2)c2ccccc2)c2ccccc2)cc1 | > 200 µM | 85.1 µM | –
28 | O=c1nc2n(cc1F)C1OC(CCl)C(O)C1O2 (configuration not stated) | > 200 µM | > 200 µM | –
29 | Cc1cc(C)c2c(c1)CN1CN2Cc2cc(C)cc(C)c21 | – | – | inactive
30 | Cc1cccc(-c2cc(=O)c3cc(C)c(C)c(C(=O)O)c3o2)c1 | – | – | inactive
31 | COc1cc(C(=O)O)ccc1O | > 200 µM | > 200 µM | –
32 | COc1ccc(Cc2nc3ccccc3s2)cc1OC | > 126 µM | 13.8 µM | –
33 | COc1cc2c[n+](C)c3c(c2cc1OC)Cc1cc2c(cc1-3)OCO2 | > 19.5 µM | > 19.5 µM | –
34 | CN(CC1NCCCC1O)C12CC3CC(CC(C3)C1)C2 (configuration not stated) | > 891 µM | > 891 µM | –
35 | O=[N+]([O-])c1cccc(C2=NON(c3ncccn3)C3N=CC=CN23)c1 (configuration not stated) | > 5.89 µM | > 5.89 µM | –
36 | O=C(Nc1ccc(Cl)cc1)c1cc(S(=O)(=O)N2CCNNC2=O)c(S)cc1Cl | 9.77 µM | 129 µM | –
37 | COc1cc(NC=C2C(=O)OC(C)(C)OC2=O)c(OC)c(C)c1OC | > 200 µM | > 200 µM | –
38 | C/C(=N\NC(=S)N1CCC1)c1ccccn1 | > 0.2 µM | 0.00525 µM | –
39 | O=C(O)c1cccc(/C=C/c2ccc(N=Nc3c(O)cc(O)cc3C(=O)O)cc2C(=O)O)c1 | > 200 µM | 158 µM | –
40 | CCNC(=O)C1CCCN1C(=O)C(CCCN=C(N)N)NC(=O)C(CC(C)C)NC(=O)C(Cc1c[nH]c2ccccc12)NC(=O)C(Cc1ccc(O)cc1)NC(=O)C(CO)NC(=O)C(Cc1c[nH]c2ccccc12)NC(=O)C(Cc1cnc[nH]1)NC(=O)C1CCC(=O)N1 (configuration not stated) | > 178 µM | > 178 µM | –
41 | O/N=C(\C(=N/O)Nc1ccc(-c2ccc(NC(=N/O)/C(=N\O)c3ccccc3)cc2)cc1)c1ccccc1 | > 37.2 µM | 30.9 µM | –
42 | COC(=O)/C=C\C(C#N)(C#N)N=Cc1ccc(Br)cc1 | > 20 µM | 1.02 µM | –

Row | Compound | EC50 | IC50 | outcome
43 | N#Cc1c[nH]n2ccnc12 | > 200 µM | > 200 µM | –
44 | COc1cc2c(cc1OC)/C(=C\c1ccccc1N)C(=O)OC2 | – | – | inactive
45 | CN=S(=O)(C[C@]1(O)CC2OC1C1OC(C)(C)OC21)c1ccccc1 (some centres not stated) | > 708 µM | > 708 µM | –
46 | CC(=O)OCC1OC(n2c(S)c(C#N)c(-c3ccccc3)c(C#N)c2=O)C(OC(C)=O)C(OC(C)=O)C1OC(C)=O (configuration not stated) | > 200 µM | > 200 µM and 21.9 µM | –
47 | COc1cc(O)c(C(=O)/C=C/c2ccc(OC)c(OCc3ccccc3)c2)c(OC)c1 | – | – | inactive
48 | COC(=O)c1c2cccccc-2c(Cc2c3cccccc-3c(C(=O)OC)c2O)c1O | > 200 µM | > 200 µM | –
49 | c1cc2n[se]nc2cc1-c1ccc2n[se]nc2c1 | 155 µM | > 200 µM | –
50 | C1CNCCSCCCSCCNC1 | > 200 µM | > 200 µM | –
51 | O=C(O)CCSC(=O)Nc1ccc([N+](=O)[O-])cc1 | – | – | inactive
52 | CCCCCCCSCC(O)COC(c1ccccc1)(c1ccccc1)c1ccccc1 (configuration not stated) | > 200 µM | 30.2 µM | –
53 | CCOC(=O)c1ccc(NC(=O)O/N=C(/Cl)CC)cc1 | – | – | inactive
54 | O=[N+]([O-])c1cccc2nc3ccccc3c(NCCc3ccccn3)c12 | > 2 µM | 0.0631 µM | –
55 | Nc1nc(=O)n(C2OC(CO)CC2F)cc1F (configuration not stated) | 55 µM | 575 µM | –
56 | O=C1OC(=O)C2C1C(c1ccc([N+](=O)[O-])cc1)N1C3C(=O)OC(=O)C3C(c3ccc([N+](=O)[O-])cc3)N21 (configuration not stated) | > 27.5 µM | > 27.5 µM | –
57 | COc1ccc(S(=O)(=O)Cc2ccc(C(=O)O)cc2)cc1 | > 813 µM | > 813 µM | –
58 | COc1ccccc1-n1cnc2c1NC(C)(C)N=C2C(N)=O | > 200 µM | > 200 µM | –
59 | Cc1ccc(Cc2n[nH]c(=O)n2-c2ccccc2)cc1 | – | – | inactive
60 | C=CCNC(=S)/N=C/C(C(=O)Nc1ccc(Cl)cc1)=C(\C)O | > 200 µM | 129 µM | –
61 | O=C1CCC(=O)N1N1C(=O)CCC1=O | > 200 µM | > 200 µM | –
62 | COc1c2c(c(OC)c3c1C(=O)c1ccccc1C3=O)C(=O)CCC2 | > 8.13 µM | > 8.13 µM | –
63 | CC(=O)OC1c2ccccc2CCCCCCC12OCCO2 (configuration not stated) | > 200 µM | 105 µM | –

Row | Compound | EC50 | IC50 | outcome
64 | Cc1ccc2c(c1)C/C(=C\c1ccccc1C(=O)O)C2=O | > 200 µM | 102 µM | –
65 | CC(C)CC(NC(=O)C(Cc1ccc(O)cc1)NC(=O)CNC(=O)C(N)CCC(=O)O)C(=O)NC(Cc1c[nH]c2ccccc12)C(=O)O (configuration not stated) (H-EGYLW-OH; configuration not given here) | – | – | inactive
66 | COC1/C=C/OC2(C)Oc3c(C)c(O)c4c(O)c(c(/C=N/N5C(C)CN(Cc6ccccc6C#N)CC5C)c(O)c4c3C2=O)NC(=O)/C(C)=C\C=C\C(C)C(O)C(C)C(O)C(C)C(OC(C)=O)C1C (configuration not stated) | > 200 µM | 7.41 µM | –
67 | CCCCC1(OC(=O)CCC(=O)O)CCC2(CCC(C)C(C/C=C(C)/C=C/C(O)C(C)/C=C/C(=O)O)O2)OC1CC/C(C)=C/C(=O)O (configuration not stated) | > 3.8 µM | 1.29 µM | –
68 | N#Cc1n[nH]n(C2CCCCC2)c1=O | > 200 µM | > 200 µM | –
69 | Cc1cn(C2CC(OC3CCCCO3)C(CO)O2)c(=O)[nH]c1=O (configuration not stated) | > 200 µM | > 200 µM | –
70 | NC1=NC(c2ccccc2)C2=C(N1)C(=O)N(Cc1ccccc1)C2 (configuration not stated) | > 204 µM | 72.4 µM | –
71 | CCOC(=O)C(C)(C)C(OP(=S)(OCC)OCC)=C(C)C | > 3.09 µM | > 3.09 µM | –
72 | CN(C)c1ccc(N=Nc2ccc3c(c2)C(=O)c2ccccc2C3=O)cc1 | > 200 µM | > 200 µM | –
73 | Cc1cc(N=Nc2ccccc2)ccc1NCS(=O)(=O)O | > 200 µM | 117 µM | –
74 | CCCCCC(C)[P+](c1ccccc1)(c1ccccc1)c1ccccc1 (configuration not stated) | > 200 µM | 0.955 µM | –
75 | C[C@@H]1C(=O)O[C@H]1[C@H](O)CO | > 200 µM | > 200 µM | –
76 | CC(=O)OC1C(=O)C(O)C(C)OC1O[C@@H]1C[C@@]2(C)[C@@H]3CC=C4[C@@H](C[C@H](O)C(=O)C4(C)C)[C@]3(C)C(=O)C[C@]2(C)[C@H]1[C@@](C)(O)C(=O)/C=C/C(C)(C)O (some centres not stated) | > 0.501 µM | 0.0832 µM | –
77 | CC(C)=CC1CC(=[N+]=[N-])C(=O)C1(C)C (configuration not stated) | > 186 µM | > 186 µM | –
78 | O=C(c1ccccc1)c1ccc2c(c1)N=C(c1ccc(Cl)c(Cl)c1)CC(c1ccc3ccccc3c1)N2 (configuration not stated) | > 13.8 µM | > 13.8 µM | –
79 | O=c1/c(=C\c2ccccc2Cl)sc2n1CCN=2 | – | – | inactive
80 | Cc1ccc(/C(O)=C/c2nc3ccccc3[nH]c2=O)c(C)c1 | > 200 µM | 35.5 µM | –
81 | COCOc1c(OC)c(C2(O)C(=O)N(C)c3ccccc32)c(OCOC)c(OC)c1C1(O)C(=O)N(C)c2ccccc21 (configuration not stated) | > 200 µM | 42.7 µM | –
82 | O=C(O)C(CS(=O)(=O)O)Nc1ccc([N+](=O)[O-])cc1[N+](=O)[O-] (configuration not stated) | > 692 µM | > 692 µM | –
83 | COc1ccc2oc(=N)c(C(=O)Nc3ccccc3)cc2c1 | > 200 µM | 12 µM | –
